SMILES strings stand for the structures.

One data set deals with angiotensin receptor.
Assay: not given
Particulars: in vivo; cited from earlier work.
In the case of `CNCC(=O)N[C@@H](CCCN=C(N)N)C(=O)N[C@H](C(=O)N[C@@H](Cc1ccc(O)cc1)C(=O)N[C@H](C(=O)N[C@@H](Cc1cnc[nH]1)C(=O)N1CCC[C@H]1C(=O)N[C@@H](C)C(=O)O)C(C)C)C(C)C` [saralasin, [Sar^1,Ala^8] angiotensin II], the “blood pressure after intravenous administration” value is given as “initial increase in blood pressure after intravenous administration”.

The next data set concerns the target T1, angiotensin II receptor (Oryctolagus cuniculus, UniProt P34976).
T1 construct: Main abdominal aortas were removed and placed in Krebs-Henseleit buffer at room temperature; from tissue; host or cells: main abdominal aorta rings (3 mm) of female New Zealand White rabbits
T1 sequence (P34976 1-359): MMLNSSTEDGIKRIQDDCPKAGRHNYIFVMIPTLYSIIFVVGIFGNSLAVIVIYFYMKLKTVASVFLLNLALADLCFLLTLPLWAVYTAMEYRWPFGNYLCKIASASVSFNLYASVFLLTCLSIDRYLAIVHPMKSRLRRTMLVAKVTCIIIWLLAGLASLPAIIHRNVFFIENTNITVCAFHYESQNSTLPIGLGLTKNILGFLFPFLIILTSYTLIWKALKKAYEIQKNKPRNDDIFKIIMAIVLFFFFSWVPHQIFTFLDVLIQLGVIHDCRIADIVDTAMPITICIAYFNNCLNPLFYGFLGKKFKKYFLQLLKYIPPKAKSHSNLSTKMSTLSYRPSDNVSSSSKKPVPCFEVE
Kind of data set: Antagonism of contraction of rabbit aorta (angiotensin II functional assay, isolated rabbit aorta, pA2). Also on record: species or system rabbit (female New Zealand White). Particulars: angiotensin II as agonist, 30 minutes incubation with antagonist, Schild analysis, negative logarithm of [A]2. From the text:
ANGIOTENSIN II FUNCTIONAL ASSAY: Antagonism of Contraction of Rabbit Aorta
The protocol reported by A. T Chiu and P. Timmermans (P. C. Wong, et al. Hypertension, 13, 489-497 (1989)) was followed with a few modifications. Female New Zealand White rabbits weighing 2-5 kg were sedated with carbon dioxide and then sacrificed. Main abdominal aortas were removed and placed in Krebs-Henseleit buffer at room temperature. […]
______________________________________
Buffer Component mM Concentration
potassium dihydrogen phosphate
sodium bicarbonate 20.00
EDTA* disodium calcium salt
*EDTA = ethylenediamine tetraacetic acid
The buffer contained no cocaine, propanolol or steroid.
The pH of the buffer was 7.40 at 37° C. when saturated with 5%
carbon dioxide/95% oxygen.
The tissues were cleaned of extraneous connective tissue, cut into 3 mm rings, and suspended within a 10 mL tissue bath. All dilutions of peptide preparations were made with 0.3% aqueous BSA. The tissues were primed with 55 mM potassium chloride. Tissues were pre-loaded with 1 g of tension. Tension was recorded on a model 7 Grass polygraph using FT03 transducers. At the end of the equilibrium period, a control cumulative concentration-contractile response curve for angiotensin II (A II: 1×10^-10 -10^-8 M) was obtained. The tissue was washed several times until the baseline was reached. Forty five minutes later, test compound (antagonist) was added and the tissue was incubated for 30 minutes. The concentration-response curve for A II was then repeated in the presence of the test compound. One dose of antagonist was tested per tissue only. For single dose shift experiments a dose of 1 mM of test compound was used, for a full pA2 experiment multiple doses were used depending upon the potency of the antagonist.
All responses to the control agonist were calculated as a percentage of the maximum response. These points in duplicate were plotted and analyzed according to standard Schild analysis (H. O. Schild, British J Pharmacology and Chemotherapy, 2, 189-206 (1947). The pA2 values calculated for the compounds of the invention are shown in Table 6. The pA2 value is the negative logarithm of the [A]2 value. [A]2 is the concentration of antagonist which necessitates doubling the agonist concentration in order to achieve the agonist effect which was measured in the absence of antagonist.
The pA2 value, therefore, is a measure of the effectiveness of the compound as an antagonist.
For the compound `CCCCN(Cc1ccc(-c2ccccc2-c2nnn[nH]2)cc1)c1nncs1` [Example 12, 2-{N-Butyl-N-[(2'-[1H-tetrazol-5-yl]biphenyl-4-yl)methyl]amino}-1,3,4-thiadiazole], the Kb (usually the affinity of an antagonist, worked out from how it opposes an agonist) is 20 nM.

Compound `CCCCN(Cc1ccc(-c2ccccc2-c2nn[nH]n2)cc1)c1snnc1C(=O)O` [Example 10, 5-[N-Butyl-N-[[2'-(1H-tetrazol-5-yl)biphenyl-4-yl]methyl]amino]-1,2,3-thiadiazole-4-carboxylic acid] had a Kb of 4.37 nM. Turning to `CCCc1nc(N(CCC)Cc2ccc(-c3ccccc3-c3nn[nH]n3)cc2)sc1C(=O)O` [Example 31, 2-{N-Propyl-N-[(2'-[1H-tetrazol-5-yl]biphenyl-4-yl)methyl]amino}thiazole-4-propyl-5-carboxylic acid], the antagonist equilibrium constant (Kb) is 37.2 nM. On the same count and under the same terms, the figure for `CCCCN(Cc1ccc(-c2ccccc2-c2nn[nH]n2)cc1)c1scnc1C(=O)O` [Example 3, 5-{N-Butyl-N-[(2'-[1H-tetrazol-5-yl]biphenyl-4-yl)methyl]amino}thiazole-4-carboxylic acid] is 6.31 nM; for `CCCCN(Cc1ccc(-c2ccccc2-c2nnn[nH]2)cc1)c1nnc(C(=O)OCC)s1` [Example 11, Ethyl 2-{N-Butyl-N-[(2'-[1H-tetrazol-5-yl]biphenyl-4-yl)methyl]amino}-1,3,4-thiadiazole-5-carboxylate] it is 2.95 nM. On the same count and under the same terms, the same measure for `CCCCN(Cc1ccc(-c2ccccc2-c2nn[nH]n2)cc1)c1ncc(C(=O)O)s1` [Example 27, 2-{N-Butyl-N-[(2'-[1H-tetrazol-5-yl]biphenyl-4-yl)methyl]amino}thiazole-5-carboxylic acid]: 1.66 nM; for `CCCCN(Cc1ccc(-c2ccccc2-c2nnn[nH]2)cc1)c1nc(SC)n(C)c1C(=O)OCC` [Example 1, Ethyl 4-{N-butyl-N-[(2'-[1H-tetrazol-5-yl]biphenyl-4-yl)methyl]amino}-1-methyl-2-(methylthio)imidazole-5-carboxylate]: 105 nM; for `CCCCN(Cc1ccc(-c2ccccc2-c2nn[nH]n2)cc1)c1cn(CC)cn1` [Example 6, 4-{N-Butyl-N-[(2'-[1H-tetrazol-5-yl]biphenyl-4-yl)methyl]amino}-1-(N-ethyl)imidazole]: 7.59 nM. In turn, `CCCN(Cc1ccc(-c2ccccc2-c2nn[nH]n2)cc1)c1nc(C(F)(F)F)c(C(=O)O)s1` [Example 30, 2-{N-Propyl-N-[(2'-[1H-tetrazol-5-yl]biphenyl-4-yl)methyl]amino}thiazole-4-trifluoromethyl-5-carboxylic acid] gave an antagonist equilibrium constant (Kb) of 27.5 nM. This Kb is about 3.6-fold higher than that of the compound before.

Take `CCCN(Cc1ccc(-c2ccccc2-c2nn[nH]n2)cc1)c1ncc(C(=O)O)s1` [Example 28, 2-{N-Propyl-N-[(2'-[1H-tetrazol-5-yl]biphenyl-4-yl)methyl]amino}thiazole-5-carboxylic acid]: the antagonist dissociation constant (Kb) was 13.5 nM. This Kb lies about 2-fold lower than the previous one.

With `CCCN(Cc1ccc(-c2ccccc2-c2nn[nH]n2)cc1)c1nn(C)cc1C(=O)O` [Example 14, 1-Methyl-3-{N-propyl-N-[(2'-[1H-tetrazol-5-yl]biphenyl-4-yl)methyl]amino}pyrazole-4-carboxylic acid], the Kb was 11.5 nM.

On to `CCCCN(Cc1ccc(-c2ccccc2-c2nn[nH]n2)cc1)c1ncn(CC)c1C(=O)OC(C)(C)C` [Example 5, tert-Butyl 4-{N-butyl-N-[(2'-[1H-tetrazol-5-yl]biphenyl-4-yl)methyl]amino}-1-(N-ethyl)imidazole-5-carboxylate], for which the Kb is 87.1 nM. On to `CCCN(Cc1ccc(-c2ccccc2-c2nn[nH]n2)cc1)c1nc(C)c(C(=O)O)s1` [Example 29, 4-Methyl-2-{N-propyl-N-[(2'-[1H-tetrazol-5-yl]biphenyl-4-yl)methyl]amino}thiazole-5-carboxylic acid], for which the Kb is 2.34 nM. On the same count and under the same terms, the figure for `CCCCN(Cc1ccc(-c2ccccc2-c2nnn[nH]2)cc1)c1snnc1C(=O)OCC` [Example 9, Ethyl 5-{N-butyl-N-[(2'-[1H-tetrazol-5-yl]biphenyl-4-yl)methyl]amino}-1,2,3-thiadiazole-4-carboxylate] is 16.6 nM.

The test system of a further data set is angiotensin II.
Assay: not given
The conditions noted are these: background statement; cited from earlier work.
Take `CNCC(=O)N[C@@H](CCCN=C(N)N)C(=O)N[C@H](C(=O)N[C@@H](Cc1ccc(O)cc1)C(=O)N[C@H](C(=O)N[C@@H](Cc1cnc[nH]1)C(=O)N1CCC[C@H]1C(=O)N[C@@H](C)C(=O)O)C(C)C)C(C)C` [saralasin, [Sar^1,Ala^8] angiotensin II]: the “antagonist of the actions of angiotensin II” value was “potent antagonist of the actions of angiotensin II”.

System in a further data set: not given
Assay: not given
Particulars: peptide; cited from earlier work.
`CNCC(=O)N[C@@H](CCCN=C(N)N)C(=O)N[C@H](C(=O)N[C@@H](Cc1ccc(O)cc1)C(=O)N[C@H](C(=O)N[C@@H](Cc1cnc[nH]1)C(=O)N1CCC[C@H]1C(=O)N[C@@H](C)C(=O)O)C(C)C)C(C)C` [saralasin, [Sar^1,Ala^8] angiotensin II]: the oral bioavailability result is recorded as “very poor oral bioavailability”.

Values taken from patent US5326776A, “Angiotensin II receptor antagonists” (Abbott Laboratories, priority 1993, dated 1994).
